According to the supplement of paper PMC10307832:

Tests used:
Assay in all cases: relative viability (nuclei count vs DMSO), 5 days (fraction); higher = more cells survive
RO-3306 + Decitabine = compound: C1=CC2=C(C=CC(=C2)C=C3C(=O)NC(=NCC4=CC=CS4)S3)N=C1 [RO-3306] + Nc1ncn([C@H]2C[C@H](O)[C@@H](CO)O2)c(=O)n1 [Decitabine] (partner 2 µM)
In short: (§1)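 One day after seeding in 1536-well plates, lung cancer cell lines were dosed by pin tool. Dosing was either single-drug or a fixed anchor-drug dose plus five library-drug doses (not always all listed) in √10 steps. After 5 days, nuclei were stained in one fix-and-stain step and counted on 4× images, and relative viability is the nuclei count of treated wells over that of vehicle wells, given as the median of duplicate plates.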

RO-3306 + Tozasertib = compound: C1=CC2=C(C=CC(=C2)C=C3C(=O)NC(=NCC4=CC=CS4)S3)N=C1 [RO-3306] + Cc1cc(Nc2cc(N3CCN(C)CC3)nc(Sc3ccc(NC(=O)C4CC4)cc3)n2)n[nH]1 [Tozasertib] (partner 0.1 µM)
In short: as §1

RO-3306 + Phenformin = compound: C1=CC2=C(C=CC(=C2)C=C3C(=O)NC(=NCC4=CC=CS4)S3)N=C1 [RO-3306] + N=C(N)NC(=N)NCCc1ccccc1 [Phenformin] (partner 250 µM)
In short: as §1

[1] = compound: O=S(=O)(c1ccccc1)N(CC(F)(F)F)c1ccc(C(O)(C(F)(F)F)C(F)(F)F)cc1 + CS(=O)(=O)CCNCc1ccc(-c2ccc3ncnc(Nc4ccc(OCc5cccc(F)c5)c(Cl)c4)c3c2)o1 [Lapatinib] (partner 2 µM)
In short: as §1

| Cell Line | relative viability (RO-3306 + Decitabine; first compound 0.01 µM) | relative viability (RO-3306 + Decitabine; first compound 0.03162 µM) | relative viability (RO-3306 + Decitabine; first compound 0.1 µM) | relative viability (RO-3306 + Decitabine; first compound 0.3162 µM) | relative viability (RO-3306 + Decitabine; first compound 1 µM) | relative viability (RO-3306 + Tozasertib; first compound 0.01 µM) | relative viability (RO-3306 + Tozasertib; first compound 0.03162 µM) | relative viability (RO-3306 + Tozasertib; first compound 0.1 µM) | relative viability (RO-3306 + Tozasertib; first compound 0.3162 µM) | relative viability (RO-3306 + Tozasertib; first compound 1 µM) | relative viability (RO-3306 + Phenformin; first compound 0.01 µM) | relative viability (RO-3306 + Phenformin; first compound 0.03162 µM) | relative viability (RO-3306 + Phenformin; first compound 0.1 µM) | relative viability (RO-3306 + Phenformin; first compound 0.3162 µM) | relative viability (RO-3306 + Phenformin; first compound 1 µM) | relative viability ([1]; first compound 0.8 µM) | relative viability ([1]; first compound 2.53 µM) | relative viability ([1]; first compound 8 µM) |
| --- | --- | --- | --- | --- | --- | --- | --- | --- | --- | --- | --- | --- | --- | --- | --- | --- | --- | --- |
| LCLC-103H | 0.772 | 0.651 | 0.695 | 0.768 | 0.713 | 0.439 | 0.45 | 0.405 | 0.458 | 0.499 | 0.36 | 0.27 | 0.298 | 0.342 | 0.328 |  |  |  |
| NCI-H522 | 0.736 | 0.544 | 0.712 | 0.775 | 0.638 | 0.545 | 0.495 | 0.595 | 0.567 | 0.5 | 0.599 | 0.615 | 0.699 | 0.666 | 0.733 |  |  |  |
| NCI-H1651 | 0.671 | 0.562 | 0.587 | 0.664 | 0.58 | 0.713 | 0.589 | 0.755 | 0.57 | 0.446 | 0.363 | 0.254 | 0.341 | 0.338 | 0.251 | 0.9 | 0.821 | 0.847 |
| NCI-H23 | 0.338 |  | 0.334 | 0.341 | 0.301 | 0.279 | 0.304 | 0.394 | 0.124 | 0.301 | 0.734 | 0.762 | 0.737 | 0.745 | 0.668 | 1.24 | 1.24 | 1.14 |
| NCI-H322M | 0.591 | 0.675 | 0.721 | 0.717 | 0.762 | 0.549 | 0.467 | 0.443 | 0.476 | 0.432 | 0.768 | 0.661 | 0.724 | 0.777 | 0.791 | 0.684 | 0.602 | 0.655 |
| HCC-44 | 0.951 | 0.95 | 1.02 | 0.917 | 0.956 | 1.17 | 0.947 | 0.925 | 0.873 | 0.676 | 0.226 | 0.21 | 0.163 | 0.185 | 0.196 | 1.07 | 1.04 | 0.998 |
| NCI-H1648 | 0.545 |  | 0.357 | 0.47 | 0.472 | 0.406 |  | 0.558 | 0.362 | 0.478 |  |  |  |  |  |  |  |  |
| UMC-11 | 0.569 | 0.58 | 0.613 | 0.607 | 0.583 | 0.174 | 0.225 | 0.199 | 0.213 | 0.194 | 0.351 | 0.291 | 0.3 | 0.366 | 0.315 | 1.19 | 0.966 | 1.22 |
| NCI-H596 | 0.985 | 0.805 | 0.882 | 1.02 | 0.891 | 0.837 | 0.712 | 0.771 | 0.834 | 0.794 | 0.77 | 0.63 | 0.799 | 0.758 | 0.966 | 0.999 | 0.828 | 0.998 |
| NCI-H650 | 0.292 | 0.33 | 0.283 | 0.259 | 0.352 | 0.682 | 0.695 | 0.718 | 0.739 | 0.603 | 0.408 | 0.411 | 0.445 | 0.467 | 0.457 | 1.24 | 0.804 | 1.12 |
| NCI-H2228 |  |  |  |  |  | 0.225 | 0.219 | 0.221 | 0.168 | 0.223 | 0.286 | 0.211 | 0.276 | 0.32 | 0.241 | 1.32 | 0.964 | 1.5 |
| NCI-H661 | 0.589 | 0.507 | 0.525 | 0.581 | 0.585 | 0.333 | 0.382 | 0.351 | 0.339 | 0.337 | 0.302 | 0.281 | 0.268 | 0.247 | 0.282 | 0.606 | 0.466 | 0.465 |
| A549 | 0.284 |  | 0.245 | 0.254 | 0.36 |  |  |  |  |  | 0.225 | 0.802 |  | 0.124 | 1.12 | 0.949 | 0.772 | 0.715 |
| CAL-12T |  |  |  |  |  | 0.364 | 0.245 | 0.303 | 0.371 | 0.261 | 0.56 | 0.445 | 0.511 | 0.597 | 0.674 |  | 0.531 | 0.592 |
| NCI-H1792 | 0.702 |  | 0.47 | 0.606 | 0.481 |  |  |  |  |  | 0.196 |  | 0.156 | 0.289 | 0.259 | 0.932 | 0.783 | 0.665 |
| NCI-H1299 |  |  |  |  |  |  |  |  |  |  |  |  |  |  |  | 0.923 | 0.952 | 0.879 |
| Calu-6 |  |  |  |  |  |  |  |  |  |  |  |  |  |  |  | 0.945 | 0.901 | 0.966 |
| NCI-H1563 |  |  |  |  |  |  |  |  |  |  | 0.643 | 0.639 | 0.641 | 0.631 | 0.666 | 0.85 | 0.899 | 0.761 |
| NCI-H2342 | 0.746 | 0.654 | 0.755 | 0.773 | 0.673 | 0.54 | 0.537 | 0.492 | 0.47 | 0.506 | 0.591 | 0.519 | 0.527 | 0.569 | 0.586 |  |  |  |
| NCI-H441 | 0.216 | 0.211 | 0.253 | 0.277 | 0.244 | 0.587 | 0.527 | 0.604 | 0.538 | 0.481 | 0.689 | 0.474 | 0.783 | 0.864 | 0.788 |  |  |  |
| SW 900 | 0.45 | 0.425 | 0.42 | 0.404 | 0.549 | 0.659 | 0.474 | 0.444 | 0.438 | 0.329 | 0.636 | 0.539 | 0.506 | 0.465 | 0.502 |  |  |  |
| EBC-1 |  |  |  |  |  |  |  |  |  |  |  |  |  |  |  | 0.307 | 0.353 | 0.337 |
| ChaGo-K-1 | 0.514 | 0.508 | 0.521 | 0.476 | 0.363 | 0.209 | 0.234 | 0.209 | 0.216 | 0.234 | 0.579 | 0.404 | 0.447 | 0.443 | 0.337 |  |  |  |
